Source: patent publication US5030760A, “Tetrahydrophthalimides, and their production and use” (Sumitomo Chemical Company, Ltd., priority 1981, dated 1991)

Key:
Settings in all cases: 3 weeks
[1] = tested on: slender spikerush; assay: Test Example 7, flooded paddy pot dripping, herbicidal activity; assay type: in vivo, Eleocharis acicularis
Description: (§1) The application of the tetrahydrophthalimides (I) as herbicides will be illustratively shown in the following Examples wherein the phytotoxicity to cultivated plants and the herbicidal activity on weeds were evaluated as follows: the aerial parts of the test plants were cut off and weighed (fresh weight); the percentage of the fresh weight of the treated plant to that of the untreated plant was calculated with the latter fresh weight taken as 100; and the crop damage and the herbicidal activity were evaluated by the standard given in the table below. The rating values of phytotoxicity, 0 and 1, and those of herbicidal effect, 5 and 4, are generally regarded as satisfactory to protect cultivated plants and control weeds, respectively. The rating values in the paddy field test alone were calculated from the dry weight of the test plants.
(§2) Wagner's pots (1/5000 are) were filled with paddy field soil and water was poured therein to make a flooded condition. Rice seedlings of the 3-leaf stage were transplanted and tubers of slender spikerush and arrowhead and the seeds of barnyardgrass, monochoria and broad-leaved weed were sowed therein and grown for 5 days. When germination occurs, a designed amount of the test compound formulated into an emulsifiable concentrate according to Preparation Example 2 was applied to the pots by dripping. The test plants were grown for a further 3 weeks, and herbicidal activity and phytotoxicity were examined. The herbicidal activity was evaluated in figures ranging from 0 to 5. The phytotoxicity to the crop plants was also indicated on the same standard as that of the herbicidal activity.

[2] = tested on: monochoria; assay: as above; assay type: in vivo, Monochoria vaginalis
Description: as §1, §2

[3] = tested on: rice plant; assay: Test Example 7, flooded paddy pot dripping, phytotoxicity to rice plant; assay type: in vivo
Description: as §1, §2

[4] = tested on: broad-leaved weed; assay: Test Example 7, flooded paddy pot dripping, herbicidal activity; assay type: in vivo
Description: as §1, §2
Further: ranges in brackets are in %.

Which “Herbicidal activity, Slender spikerush” value ([1]; 2.5 g/are) does the source give for O=C1C2=C(CCCC2)C(=O)N1c1ccc(Cl)cc1F [A, 2-fluoro-4-chlorophenyltetrahydrophthalimide, reference compound] here?
The value was 2 (30-49).

And the “Herbicidal activity, Slender spikerush” value ([1]; 5 g/are)?
Its value is 3 (50-69).

What about the “Herbicidal activity, Slender spikerush” value ([1]; 10 g/are) of the same molecule?
Its value is 4 (70-89).

And the “Herbicidal activity, Monochoria” value ([2]; 2.5 g/are)?
The value was 4 (70-89).

What about the “Herbicidal activity, Monochoria” value ([2]; 5 g/are) of the same molecule?
The value was 5 (90-100).

And the “Herbicidal activity, Monochoria” value ([2]; 10 g/are)?
Its value is 5 (90-100).

What about the “Phytotoxicity, Rice plant” value ([3]; 2.5 g/are) of the same molecule?
The value was 1 (10-29).

What about the “Phytotoxicity, Rice plant” value ([3]; 5 g/are) of the same molecule?
Its value is 1 (10-29).

And the “Phytotoxicity, Rice plant” value ([3]; 10 g/are)?
The value was 2 (30-49).

And the “Herbicidal activity, Broad-leaved weed” value ([4]; 2.5 g/are)?
Its value is 4 (70-89).

And the “Herbicidal activity, Broad-leaved weed” value ([4]; 5 g/are)?
Its value is 5 (90-100).

And the “Herbicidal activity, Broad-leaved weed” value ([4]; 10 g/are)?
Its value is 5 (90-100).
